The text below walks through data of patent US6596772B1, “Phosphate mimics and methods of treatment using phosphatase inhibitors” (Sugen, Inc., priority 1999, dated 2003).

Assay in all cases: PTP IC50 assay, fluorescent substrate DiFMUP
Common to all, as to assay type: biochemical

Experiment [1] concerns the target T1, PTP 1B (Homo sapiens, UniProt P18031).
T1 construct: made in house; host or cells: Sf-9 insect cells (pFastBac-G2T)
T1 sequence (P18031 1-435): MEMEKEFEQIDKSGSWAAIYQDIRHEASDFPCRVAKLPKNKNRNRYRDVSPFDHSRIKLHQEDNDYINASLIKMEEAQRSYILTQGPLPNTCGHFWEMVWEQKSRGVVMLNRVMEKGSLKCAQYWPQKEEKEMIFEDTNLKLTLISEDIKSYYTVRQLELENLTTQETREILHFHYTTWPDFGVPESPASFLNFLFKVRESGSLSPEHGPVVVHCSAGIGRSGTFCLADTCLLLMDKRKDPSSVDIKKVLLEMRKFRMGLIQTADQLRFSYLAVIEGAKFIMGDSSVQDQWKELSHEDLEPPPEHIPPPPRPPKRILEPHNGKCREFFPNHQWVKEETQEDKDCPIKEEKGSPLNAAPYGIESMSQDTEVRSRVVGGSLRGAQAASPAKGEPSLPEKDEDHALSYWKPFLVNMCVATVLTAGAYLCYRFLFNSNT
To be noted: DiFMUP as substrate, 25° C.; read-out: PTP IC50 1B. From the text: The PTP1b cDNA was amplified from human placenta single strand cDNA (Clontech RNA) using the following oligonucleotides: 5′oligo: 5′-[…] (SEQ ID NO: 4) 3′oligo: 5′-[…] (SEQ ID NO: 5) It was subsequently ligated into pFasBac G2TBamH1Xba-1 sites.
(§1) The following in vitro assay procedure is preferred to determine the level of activity and effect of the different compounds of the present invention on one or more of the PTPs. Similar assays can be designed along the same lines for any PTP using techniques well known in the art.
(§2) The catalytic assays described herein are performed in a 96-well format. The general procedure begins with the determination of PTP optimal pH using a three-component buffer system that minimizes ionic strength variations across a wide range of buffer pH. Next, the Michaelis-Menten constant, or Km, is determined for the substrate 6,8-difluoro-4-methylumbelliferyl phosphate (DiFMUP). This Km value is subsequently used as the substrate reaction concentration for compound screening. Finally, the test PTP is exposed to varying concentrations of compound for fifteen minutes and allowed to react with substrate for ten minutes. The results are plotted as percent inhibition versus compound concentration and the IC50 interpolated from the plot.
(§3) All assays were performed using DiFMUP as substrate. The optimum pH and substrate Km was determined for each PTP used.
(§4) PTPase activity was assayed at 25° C. in a 100-μl reaction mixture containing an appropriate concentration of DiFMUP as substrate. The reaction was initiated by addition of the purified PTP and quenched after 10 min by addition of 1% H2O2/100 mM NaCl. The non-enzymatic hydrolysis of the substrate was corrected by measuring the control without the addition of the enzyme. The amount of DiFMU produced was determined from the increase in the fluorescence (360 nm excitation/460 nm emission) over that of background in the absence of PTPase. To determine the kinetic parameter, Km, the initial velocities were measured at various substrate concentrations and the data were fitted to the Michaelis equation where velocity=(Vmax*[S])/(Km+[S]), and [S]=substrate reaction concentration.
(§5) The effect of the compounds on PTP was evaluated at 25° C. using DiFMUP as substrate. PTP was pre-incubated for fifteen minutes with various concentrations of compound. Substrate was then added at a fixed concentration (usually equal to the Km previously calculated). After 10 minutes, the reaction was quenched. The hydrolysis of DiFMUP was followed as described above. The percent inhibition was calculated as follows: Percent Inhibition=[(control signal−compound signal)/control signal]×100%. The IC50 was then determined by interpolation of a percent inhibition versus compound concentration plot.
(§6) Plasmids designed for bacterial GST-PTP fusion protein expression were derived by insertion of PCR-generated human PTP fragments into pGEX vectors (Pharmacia Biotech). Several of these constructs were then used to subclone phosphatases into pFastBac-1 for expression in Sf-9 insect cells. Oligonucleotides used for the initial amplification of PTP genes are as described above. The cDNAs were prepared using the Gilbo BRL superscript preamplification system on RNAs purchased from Clontech.

Experiment [2] deals with T2, PTP EPSILON (Homo sapiens, UniProt P23469).
T2 construct: made in house; host or cells: Sf-9 insect cells (pFastBac-G2T); a pGEX 6P-1 construct also existed
Conditions: DiFMUP as substrate, 25° C.; read-out: PTP IC50 Epilson.
From the text: The PTPepsilon cDNA was amplified from human placenta single-strand cDNA (Clontech RNA) using the following oligonucleotides: 5′oligo: 5′-[…]-3′ (SEQ ID NO: 6) 3′oligo: 5′-[…]-3′ (SEQ ID NO: 7) After cloning this PCR product into the Bam HI/Xho I sites of pGEX 6P-1, this phosphatase was subcloned using the same restriction sites in pFastBac-G2T.
as §1, §2, §3, §4, §5, §6

Experiment [3] concerns the target T3, PTP SHP2 (Homo sapiens, UniProt Q06124).
T3 construct: The catalytic domain was amplified using the following oligonucleotides; made in house; host or cells: Sf-9 insect cells (pFastBac-G2T)
T3 sequence (Q06124 247-517 limits assumed): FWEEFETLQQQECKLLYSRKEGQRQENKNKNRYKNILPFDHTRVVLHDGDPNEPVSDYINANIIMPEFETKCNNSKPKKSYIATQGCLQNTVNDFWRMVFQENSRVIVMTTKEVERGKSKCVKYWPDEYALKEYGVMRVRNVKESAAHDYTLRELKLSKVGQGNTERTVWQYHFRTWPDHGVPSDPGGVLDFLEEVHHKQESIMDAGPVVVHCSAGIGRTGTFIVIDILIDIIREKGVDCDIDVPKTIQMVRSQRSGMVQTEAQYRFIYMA
Conditions: DiFMUP as substrate, 25° C.; read-out: PTP IC50 SHP2.
From the text: SHP-2 cDNA was used as described earlier (Vogel W., et al.,1993, Science, 259:1611-4). The catalytic domain was amplified using the following oligonucleotides 5′oligo: 5′-[…]-3′ (SEQ ID NO: 2) 3′oligo: 5′-[…]-3′ (SEQ ID NO: 3) and subsequently subcloned into BamH1-Xba-1 sites. It was then ligated into pfas Bac-G2T BamH1-Xba-1 sites.
as §1, §2, §3, §4, §5, §6

T2 sequence (P23469 80-393 limits assumed): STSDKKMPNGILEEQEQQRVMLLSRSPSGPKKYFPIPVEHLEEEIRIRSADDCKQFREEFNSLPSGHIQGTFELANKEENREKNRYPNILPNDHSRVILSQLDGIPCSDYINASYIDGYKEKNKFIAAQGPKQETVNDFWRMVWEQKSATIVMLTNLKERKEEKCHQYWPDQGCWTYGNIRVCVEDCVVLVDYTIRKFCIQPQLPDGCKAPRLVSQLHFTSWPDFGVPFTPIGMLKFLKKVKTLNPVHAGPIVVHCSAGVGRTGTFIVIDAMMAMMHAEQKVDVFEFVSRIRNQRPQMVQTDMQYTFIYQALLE

Turning to `CCn1c(-c2ccc(C(=O)Nc3ccc(OC)cc3)cc2)nc2cc(S(=O)(=O)C(F)(F)F)ccc21` [Example 38, 4-(1-Ethyl-5-trifluoromethanesulfonyl-1H-benzoimidazol-2-yl)-N-(4-methoxy-phenyl)-benzamide], the 50% inhibitory concentration (IC50) in experiment [1] worked out at 1.1 µM; in experiment [2] it was 5.1 µM; in experiment [3], 1.1 µM.

For `CCn1c(-c2ccc(C(=O)NCCN3CCCC3)cc2)nc2cc(S(=O)(=O)C(F)(F)F)ccc21` [Example 40, 4-(1-Ethyl-5-trifluoromethanesulfonyl-1H-benzoimidazol-2-yl)-N-(2-pyrrolidin-1-yl-ethyl)-benzamide], the IC50 in experiment [1] was over 20 µM; in experiment [2] it was over 100 µM; in experiment [3] it was over 100 µM.

Regarding `O=C(O)c1cc2cc(NS(=O)(=O)C(F)(F)F)ccc2n1Cc1ccccc1` [Example 102, 1-Benzyl-5-trifluoromethanesulfonylamino-1H-indole-2-carboxylic acid], the results for the IC50 in experiment [1], in experiment [2] and in experiment [3] were 43.1 µM, 12.2 µM and 4 µM, respectively.

Take `CCCCNC(=O)C(c1ccc(S(=O)(=O)C(F)(F)F)cc1)N(CCO)C(=O)c1ccccc1` (stereo not drawn) [Example 45, N-[Butylcarbamoyl-(4-trifluoromethanesulfonyl-phenyl)-methyl]-N-(2-hydroxy-ethyl)-benzamide]: the half-inhibitory concentration (IC50) in experiment [1], in experiment [2] and in experiment [3] was over 100 µM each time.

Take `CCOC(=O)c1cc2cc(NS(=O)(=O)C(F)(F)F)ccc2n1C` [Example 89, 1-Methyl-5-trifluoromethanesulfonylamino-1H-indole-2-carboxylic acid ethyl ester]: the IC50 in experiment [1] is over 20 µM; in experiment [2], over 20 µM; in experiment [3], 69 µM.

Turning to `O=C(O)Cn1c(C(=O)O)cc2cc(N(S(=O)(=O)C(F)(F)F)S(=O)(=O)C(F)(F)F)ccc21` [Example 100, 1-Carboxymethyl-5-(N,N-ditrifluoromethanesulfonyl)amino-1H-indole-2-carboxylic acid], the IC50 is over 100 µM in experiment [1], over 100 µM in experiment [2] and over 20 µM in experiment [3].

For `CCOC(=O)CNC(=O)C(c1ccc(S(=O)(=O)C(F)(F)F)cc1)N(C(C)=O)C1CC1` (stereo not drawn) [Example 46, [2-(Acetyl-cyclopropyl-amino)-2-(4-trifluoromethanesulfonyl-phenyl)-acetylamino]-acetic acid ethyl ester], the IC50 in experiment [1], in experiment [2] and in experiment [3] was over 100 µM in each case.

Take `Cn1c(C(=O)Nc2cccc(C(=O)O)c2)cc2cc(NS(=O)(=O)C(F)(F)F)ccc21` [Example 82, 3-[(1-Methyl-5-trifluoromethanesulfonylamino-1H-indole-2-carbonyl)-amino]-benzoic acid]: the results for the IC50 in experiment [1], in experiment [2] and in experiment [3] were over 20 µM, 7.7 µM and 87.7 µM, respectively.

For the compound `CCOC(=O)CNC(=O)C(c1ccc(S(=O)(=O)C(F)(F)F)cc1)N(C(C)=O)C1CCCCC1` (stereo not drawn) [Example 51, [2-(Acetyl-cyclohexyl-amino)-2-(4-trifluoromethanesulfonyl-phenyl)-acetylamino]-acetic acid ethyl ester], the IC50 in experiment [1], in experiment [2] and in experiment [3] was over 100 µM each time.

With `O=C(O)c1ccc(OCCOc2ccc(S(=O)(=O)C(F)(F)F)cc2[N+](=O)[O-])cc1` [Example 53, 4-[2-(2-Nitro-4-trifluoromethanesulfonyl-phenoxy)-ethoxy]-benzoic acid], the IC50 in experiment [1] amounted to 1.5 µM; in experiment [2] it was 22.2 µM; in experiment [3] it was 1.5 µM.

In the case of `O=C(O)c1ccc2cc(CN(Cc3ccc4cc(C(=O)O)ccc4c3)S(=O)(=O)C(F)(F)F)ccc2c1` [Example 91, N,N-Bis[(6-carboxyl-naphthalen-2-yl)methyl]trifluoromethanesulfonamide], the IC50 in experiment [1] is over 20 µM; in experiment [2] it was over 20 µM; in experiment [3], 25.9 µM.

As to `CCCCN(C(=O)c1ccccc1)C(C(=O)NCC(=O)OC)c1ccc(S(=O)(=O)C(F)(F)F)cc1` (stereo not drawn) [Example 43, [2-(Benzoyl-butyl-amino)-2-(4-trifluoromethanesulfonyl-phenyl)-acetylamino]-acetic acid methyl ester], the figures for the IC50 in experiment [1], in experiment [2] and in experiment [3] were over 20 µM, 53.9 µM and 74.6 µM, respectively.

Consider `CCn1c(-c2ccc(C(=O)Nc3ccncc3)cc2)nc2cc(S(=O)(=O)C(F)(F)F)ccc21` [Example 37, 4-(1-Ethyl-5-trifluoromethanesulfonyl-1H-benzoimidazol-2-yl)-N-pyridin-4-yl-benzamide], for which the IC50 in experiment [1] was over 20 µM; in experiment [2], 20.5 µM; in experiment [3], 19 µM.

Turning to `Cc1cc2cc(NS(=O)(=O)C(F)(F)F)ccc2n1CC(=O)O` [Example 79, (2-Methyl-5-trifluoromethanesulfonylamino-indol-1-yl)-acetic acid], the IC50 was over 100 µM in experiment [1], over 20 µM in experiment [2] and over 100 µM in experiment [3].

For `CCOC(=O)c1cccc(NC(=O)c2ccc(-c3nc4cc(S(=O)(=O)C(F)(F)F)ccc4n3CC)cc2)c1` [Example 39, 3-[4-(1-Ethyl-5-trifluoromethanesulfonyl-1H-benzoimidazol-2-yl)-benzoylamino]-benzoic acid ethyl ester], the IC50 amounted to 3.7 µM in experiment [1], 1.5 µM in experiment [2] and 1.2 µM in experiment [3].

For `Cc1cc2cc(NS(=O)(=O)C(F)(F)F)ccc2n1CC(=O)Nc1cccc(C(=O)O)c1` [Example 86, 3-[2-(2-Methyl-5-trifluoromethanesulfonylamino-indol-1-yl)-acetylamino]-benzoic acid], the IC50 in experiment [1] is over 20 µM; in experiment [2], over 20 µM; in experiment [3], over 100 µM.

`CCOC(=O)c1cc2cc(N(S(=O)(=O)C(F)(F)F)S(=O)(=O)C(F)(F)F)ccc2n1CC(=O)O` [Example 98, 1-Carboxymethyl-5-(N,N-ditrifluoromethanesulfonyl)amino-1H-indole-2-carboxylic acid ethyl ester]: the 50% inhibitory concentration (IC50) in experiment [1] is over 100 µM; in experiment [2], 41.6 µM; in experiment [3] it was over 20 µM.
